Data: PubChem BioAssay AID504544 (Sanford-Burnham Center for Chemical Genomics, 2011)

The molecules below were run on S. cerevisiae tim23-1 mutant growth, luminescence (assay: tim23-1 yeast growth suppression potency – luminescence, uHTS hits, counter-screen for tim10-1 yeast inhibitor project, dose response (AID 504544)).

Question: How did the IC50 turn out when `Cc1nonc1C1CCCN1C(=O)c1cc(COc2cccc(C(F)(F)F)c2)on1` (configuration not stated) was run?
Answer: Its IC50 is 19.2 µM.

Question: `O=C(Nc1cccnc1)c1cn(-c2ccccc2)nc1-c1cccs1` was tested. Which IC50 did it give?
Answer: Its IC50 is 28.4 µM.

Question: With `CC(C)c1nnc(NC(=O)CCS(=O)(=O)c2nc(-c3cccs3)cc(C(F)(F)F)n2)s1` as the molecule, how does the IC50 read?
Answer: Its IC50 is 8.43 µM.

Question: How did the IC50 turn out when `Cc1nc(Nc2ccccc2)sc1-c1ccccc1` was run?
Answer: The IC50 was 29 µM.

Question: With `C=CC(=O)Oc1ccc(N2Cc3ccccc3C2=O)cc1` as the molecule, how does the IC50 read?
Answer: Its IC50 is 3.33 µM.

Question: Which IC50 does the source give for `CCN(CC)C1CC(=O)N(c2cccc(Cl)c2)C1=O` (configuration not stated) here?
Answer: The IC50 was 2.46 µM.

Question: With `N/C(Cc1ccc(Cl)cc1Cl)=N\OC(=O)Cc1ccc(Cl)cc1` as the molecule, how does the IC50 read?
Answer: Its IC50 is 1.39 µM.

Question: With `Cc1cc([N+](=O)[O-])ccc1-c1ccc(C2Nc3ccccc3C(=O)N2O)o1` (configuration not stated) as the molecule, how does the IC50 read?
Answer: The IC50 was 18.1 µM.

Question: For `CCOc1ccccc1NC(=O)/C=C/C(N)=O`, which IC50 is on record?
Answer: Its IC50 is 7.36 µM.

Question: With `COc1ccc(-c2[nH]ncc2N=Nc2ccccc2)cc1` as the molecule, how does the IC50 read?
Answer: The IC50 was 9.41 µM.

Question: Which IC50 does the source give for `CCOC(=O)c1cc(-c2cccs2)nc2c1c(C)nn2-c1ccccn1` here?
Answer: The IC50 was 17.3 µM.

Question: `c1ccc(Nc2cccc(Nc3ccccc3)c2)cc1` was tested. Which IC50 did it give?
Answer: Its IC50 is 11 µM.

Question: With `CC(C)C(c1nnnn1C1CCCC1)N1CCCc2ccccc21` (configuration not stated) as the molecule, how does the IC50 read?
Answer: The IC50 was 13.7 µM.

Question: For `Cc1ccc(/C(N)=N/OC(=O)C(C)c2ccc([N+](=O)[O-])cc2)cc1` (configuration not stated), which IC50 is on record?
Answer: Its IC50 is 41.9 µM.

Question: `COc1cc(OC)c(C(=O)O/N=C(\N)c2ccc(C)cc2)cc1OC` was tested. Which IC50 did it give?
Answer: The IC50 was 6.94 µM.

Question: Which IC50 does the source give for `NNc1nc(-c2ccccc2)c2cc(Br)ccc2n1` here?
Answer: The IC50 was 21.8 µM.

Question: `CN(C)CCCN(C(=O)c1cc2cc([N+](=O)[O-])ccc2s1)c1nc2cc3c(cc2s1)OCCO3` was tested. Which IC50 did it give?
Answer: Its IC50 is 13.5 µM.

Question: `CC1=C/C(=N\OS(=O)(=O)c2ccccc2)C(C)=CC1=O` was tested. Which IC50 did it give?
Answer: The IC50 was < 0.2 µM.

Question: Which IC50 does the source give for `CCCOc1ccccc1NC(=O)/C=C/C(N)=O` here?
Answer: Its IC50 is 2.34 µM.

Question: `COc1ccc(Br)cc1[C@H]1[C@@H]2C=CCC[C@@]2(C)C(=O)N1Cc1ccccc1` was tested. Which IC50 did it give?
Answer: Its IC50 is 14.3 µM.

Question: How did the IC50 turn out when `COc1ccc(C(=O)O/N=C(\N)c2ccc(Br)cc2)cc1` was run?
Answer: The IC50 was 14.4 µM.

Question: With `O=C(NNC(=S)Nc1cccc(C(F)(F)F)c1)c1cccc(Cl)c1` as the molecule, how does the IC50 read?
Answer: The IC50 was 25.5 µM.

Question: `Cc1ccc(NC(=S)/N=C(\N)Nc2nc(C)c3cc(C)ccc3n2)c(C)c1` was tested. Which IC50 did it give?
Answer: Its IC50 is 17 µM.

Question: `COc1ccc(-c2nncnn2)cc1` was tested. Which IC50 did it give?
Answer: The IC50 was 3.86 µM.

Question: Which IC50 does the source give for `COc1ccc(/C(C)=N/NC(=S)NCCc2ccccc2)cc1` here?
Answer: Its IC50 is 19.5 µM.

Question: Which IC50 does the source give for `COc1ccc(C(=O)O/N=C(\N)c2ccc(Cl)cc2)cc1` here?
Answer: The IC50 was 7.13 µM.

Question: How did the IC50 turn out when `N/C(=N\OC(=O)CCCc1ccccc1)c1ccccc1Cl` was run?
Answer: Its IC50 is 14 µM.
